# Where a name gives a salt, the structure may show the parent alone.
# Tested on: children and young adults with Dravet syndrome
# Assay: Study 1: randomized, double-blind, placebo-controlled trial of ZX008, monthly convulsive seizure frequency (MCSF)
# Type: in vivo, Human
# Conditions: for Longest seizure free interval, estimate of median treatment difference: Hodges-Lehman estimator; for Greater reduction in mean MCSF compared with placebo: 14-week treatment period; for Near-seizure freedom (0 or a single seizure during 14-week Treatment Period), % of subjects / Near-seizure freedom (0 or a single seizure during 14-week Treatment Period), number of subjects: post-hoc analysis
# Text: Human patients, age 2 to 18 years, inclusive, having a documented medical history to support a clinical diagnosis of Dravet syndrome and a history of seizures (either generalized tonic-clonic or unilateral clonic or bilateral clonic, and prolonged) were recruited, and selected for inclusion in the study according to criteria comprising a combination of age, physical and psychological characteristics, and (optionally) resistance to treatment with conventional therapies. Included subjects were assessed over the course of this 22-week study. The study protocols were reviewed and approved by the institutional review board or ethics committee for each study site before any study activation at the site. All patients or their legal representatives signed informed consent/assent prior to enrolling in the trial.
# Subjects had ≥4 convulsive seizures (tonic, tonic atonic, tonic-clonic, clonic) per 4-week period for past 12 weeks prior to screening, by parent/guardian report to investigator or investigator medical notes.
# Potential subjects enrolled in a 6-week baseline to establish seizure frequency and determine eligibility. Seizures were documented by parents or caregivers in an electronic study diary as to date, time of day, duration, and seizure type. To qualify for randomization each subject must have had ≥6 convulsive seizures during the baseline period with ≥2 in the first 3 weeks and ≥2 in the last 3 weeks. For this study convulsive seizures were defined as hemiclonic, tonic, clonic, tonic-atonic, generalized tonic-clonic, and focal with clear observable motor signs. The six-week Baseline Period started with a screening visit followed by an observation period where subjects were assessed for baseline seizure activity based on recordings of daily seizure activity entered into the diary.
# Randomization was double-blind and stratified by age group (<6 years, ≥6 years) across treatment groups. A placebo solution, identical in appearance and taste, was also provided. Daily doses were administered with food in 2 equal doses, one in the morning and one in the evening approximately 12 hours apart. […] The other groups underwent dummy titrations to maintain the blind. Patients were maintained on their final dose for an additional 12 weeks (the Maintenance Period). At the conclusion of the Treatment Period (Titration plus Maintenance), eligible patients electing to continue in an optional open-label extension (OLE) study underwent a 2-week transition period, whereas patients exiting the study underwent a 2-week taper and follow-up.
# ZX008 was supplied as an oral solution in concentrations of 1.25, 2.5, and 5 mg/mL. Subjects will be randomized to receive 1 of 2 doses of ZX008 (0.2 mg/kg/day, 0.8 mg/kg/day; up to 30 mg/day) or placebo. Study medication will be administered twice a day (BID) in equally divided doses with food. To the placebo group, as a negative control, an oral solution not containing fenfluramine was administered.
# Monthly convulsive seizure frequency (MCSF) was expressed per 28 days. The primary end point was the change in mean MCSF) between the baseline period and the combined titration and maintenance periods in subjects treated with ZX008 0.8 mg/kg/day compared with the group treated with placebo. Five key secondary end points were pre-specified: the comparison of the ZX008 0.2 mg/kg/day group with placebo for the change in MCSF between baseline and the combined titration and maintenance periods, comparison of both ZX008 groups independently with placebo on the proportion of subjects who achieved a ≥50% reduction from baseline in MCSF and the comparison of both ZX008 groups with placebo on the longest seizure-free interval observed in each group. A serial gatekeeping procedure was used to maintain the simultaneous type 1 error rate at α=0.05 across the analyses of the primary and 5 key secondary end points. […]
compound,measurement,setting,value
"CCNC(C)Cc1cccc(C(F)(F)F)c1 (stereo not shown) [ZX008, fenfluramine hydrochloride]","Longest seizure free interval, estimate of median treatment difference",0.2 mg/kg/day vs placebo,-5.0 days
same,Greater reduction in mean MCSF compared with placebo,0.2 mg/kg/day,33.7%
same,Reduction from baseline in mean MCSF,"0.2 mg/kg/day, after 6 weeks of treatment",−26.3%
same,Reduction from baseline in mean MCSF,"0.2 mg/kg/day, after 10 weeks of treatment",−22.4%
same,Reduction from baseline in mean MCSF,"0.2 mg/kg/day, after 14 weeks of treatment",−22.2%
same,"100% reduction (seizure freedom during entire 14-week treatment period), n of subjects","0.2 mg/kg/day, n = 39",3
same,"Longest seizure free interval, median","0.2 mg/kg/day, n = 39",14 days
same,"Percent change in convulsive seizure frequency per 28 days, LS means ± SE","0.2 mg/kg/day, n = 39",−22.50 ± 9.28%
same,"Percent change in convulsive seizure frequency per 28 days, median","0.2 mg/kg/day, n = 39",−37.6%
same,"Responder analysis ≥25% reduction in MCSF, % of subjects","0.2 mg/kg/day, n = 39",(61.5%)
same,"Responder analysis ≥25% reduction in MCSF, OR vs placebo","0.2 mg/kg/day, n = 39",3.80
same,"Responder analysis ≥25% reduction in MCSF, n of subjects","0.2 mg/kg/day, n = 39",24
same,"Responder analysis ≥50% reduction in MCSF, % of subjects","0.2 mg/kg/day, n = 39",(41.0%)
same,"Responder analysis ≥50% reduction in MCSF, OR vs placebo","0.2 mg/kg/day, n = 39",10.10
same,"Responder analysis ≥50% reduction in MCSF, n of subjects","0.2 mg/kg/day, n = 39",16
same,"Responder analysis ≥75% reduction in MCSF, % of subjects","0.2 mg/kg/day, n = 39",(20.5%)
same,"Responder analysis ≥75% reduction in MCSF, OR vs placebo","0.2 mg/kg/day, n = 39",10.46
same,"Responder analysis ≥75% reduction in MCSF, n of subjects","0.2 mg/kg/day, n = 39",8
same,"Change in convulsive seizure frequency per 28 days, % Difference from placebo, LS mean (key secondary endpoint)","0.2 mg/kg/day, n = 39, baseline vs titration + maintenance",−33.74%
same,"Near-seizure freedom (0 or a single seizure during 14-week Treatment Period), % of subjects",0.2 mg/kg/day,12.8%
same,"Near-seizure freedom (0 or a single seizure during 14-week Treatment Period), number of subjects",0.2 mg/kg/day,5
same,"Longest seizure free interval, estimate of median treatment difference",0.8 mg/kg/day vs placebo,-11.5 days
same,Greater reduction in mean MCSF compared with placebo,0.8 mg/kg/day,63.9%
same,Reduction from baseline in mean MCSF,"0.8 mg/kg/day, after 6 weeks of treatment",−62.4%
same,Reduction from baseline in mean MCSF,"0.8 mg/kg/day, after 10 weeks of treatment",−61.8%
same,Reduction from baseline in mean MCSF,"0.8 mg/kg/day, after 14 weeks of treatment",−62.2%
same,"100% reduction (seizure freedom during entire 14-week treatment period), n of subjects","0.8 mg/kg/day, n = 40",3
same,"Longest seizure free interval, median","0.8 mg/kg/day, n = 40",20.5 days
same,"Percent change in convulsive seizure frequency per 28 days, median","0.8 mg/kg/day, n = 40",−72.4%
same,"Responder analysis ≥25% reduction in MCSF, % of subjects","0.8 mg/kg/day, n = 40",(92.5%)
same,"Responder analysis ≥25% reduction in MCSF, OR vs placebo","0.8 mg/kg/day, n = 40",42.91
same,"Responder analysis ≥25% reduction in MCSF, n of subjects","0.8 mg/kg/day, n = 40",37
same,"Responder analysis ≥50% reduction in MCSF, % of subjects","0.8 mg/kg/day, n = 40",(70.0%)
same,"Responder analysis ≥50% reduction in MCSF, OR vs placebo","0.8 mg/kg/day, n = 40",29.10
same,"Responder analysis ≥50% reduction in MCSF, n of subjects","0.8 mg/kg/day, n = 40",28
same,"Responder analysis ≥75% reduction in MCSF, OR vs placebo","0.8 mg/kg/day, n = 40",49.49
same,"Responder analysis ≥75% reduction in MCSF, n of subjects","0.8 mg/kg/day, n = 40",18
same,"Change in convulsive seizure frequency per 28 days, % Difference from placebo, LS mean (primary endpoint)","0.8 mg/kg/day, n = 40, baseline vs titration + maintenance",−63.89%
same,"Near-seizure freedom (0 or a single seizure during 14-week Treatment Period), % of subjects",0.8 mg/kg/day,25%
same,"Near-seizure freedom (0 or a single seizure during 14-week Treatment Period), number of subjects",0.8 mg/kg/day,10
